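Protocol summary: plate cells (96-well), add compound at 5 concentrations, incubate 48 h, interpolate endpoints linearly. TGI denotes the concentration required for complete inhibition of growth.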
Legend:
Test in all cases: growth of human tumour cells (NCI), 48 h
A549 NSCLC = tested on: A549 NSCLC
SN12C renal = tested on: SN12C renal
U251 CNS = tested on: U251 CNS
NCI-H226 lung = tested on: NCI-H226 lung
EKVX NSCLC = tested on: EKVX NSCLC
MDA-MB-435 = tested on: MDA-MB-435
SK-MEL-5 melanoma = tested on: SK-MEL-5 melanoma
UACC-257 melanoma = tested on: UACC-257 melanoma
SNB-75 CNS = tested on: SNB-75 CNS
MCF7 breast = tested on: MCF7 breast
DU-145 prostate = tested on: DU-145 prostate
OVCAR-8 ovarian = tested on: OVCAR-8 ovarian
HL-60(TB) leukemia = tested on: HL-60(TB) leukemia
NCI/ADR-RES ovarian = tested on: NCI/ADR-RES ovarian
TK-10 renal = tested on: TK-10 renal
COLO 205 colon = tested on: COLO 205 colon
ACHN renal = tested on: ACHN renal
KM12 colon = tested on: KM12 colon
HCC-2998 colon = tested on: HCC-2998 colon
SF-295 CNS = tested on: SF-295 CNS
CAKI-1 renal = tested on: CAKI-1 renal
MALME-3M melanoma = tested on: MALME-3M melanoma
M14 melanoma = tested on: M14 melanoma
HCT-15 colon = tested on: HCT-15 colon
RPMI-8226 leukemia = tested on: RPMI-8226 leukemia
UACC-62 melanoma = tested on: UACC-62 melanoma
HS 578T breast = tested on: HS 578T breast
NCI-H522 lung = tested on: NCI-H522 lung
SNB-19 CNS = tested on: SNB-19 CNS
IGROV1 ovarian = tested on: IGROV1 ovarian
HT29 colon = tested on: HT29 colon
UO-31 renal = tested on: UO-31 renal
LOX IMVI melanoma = tested on: LOX IMVI melanoma
SF-268 CNS = tested on: SF-268 CNS
SK-MEL-2 melanoma = tested on: SK-MEL-2 melanoma
HOP-62 NSCLC = tested on: HOP-62 NSCLC
NCI-H460 lung = tested on: NCI-H460 lung
RXF 393 renal = tested on: RXF 393 renal
K-562 leukemia = tested on: K-562 leukemia
SF-539 CNS = tested on: SF-539 CNS
MDA-MB-231 breast = tested on: MDA-MB-231 breast
HCT-116 colon = tested on: HCT-116 colon
SK-OV-3 ovarian = tested on: SK-OV-3 ovarian
786-0 renal = tested on: 786-0 renal
SW-620 colon = tested on: SW-620 colon
OVCAR-5 ovarian = tested on: OVCAR-5 ovarian
CCRF-CEM leukemia = tested on: CCRF-CEM leukemia
A498 renal = tested on: A498 renal
MDA-N = tested on: MDA-N
SK-MEL-28 melanoma = tested on: SK-MEL-28 melanoma
T-47D breast = tested on: T-47D breast
BT-549 breast = tested on: BT-549 breast
PC-3 prostate = tested on: PC-3 prostate
NCI-H23 lung = tested on: NCI-H23 lung
OVCAR-3 ovarian = tested on: OVCAR-3 ovarian
HOP-92 NSCLC = tested on: HOP-92 NSCLC
OVCAR-4 ovarian = tested on: OVCAR-4 ovarian
MOLT-4 leukemia = tested on: MOLT-4 leukemia

Measured: TGI

CCOC(=O)c1nnsc1NC(=O)NN
> 100 µM: A549 NSCLC | SN12C renal | U251 CNS | NCI-H226 lung | EKVX NSCLC | MDA-MB-435 | SK-MEL-5 melanoma | UACC-257 melanoma | SNB-75 CNS | MCF7 breast | DU-145 prostate | OVCAR-8 ovarian | HL-60(TB) leukemia | NCI/ADR-RES ovarian | TK-10 renal | COLO 205 colon | ACHN renal | KM12 colon | HCC-2998 colon | SF-295 CNS | CAKI-1 renal | MALME-3M melanoma | M14 melanoma | HCT-15 colon | RPMI-8226 leukemia | UACC-62 melanoma | HS 578T breast | NCI-H522 lung | SNB-19 CNS | IGROV1 ovarian | HT29 colon | UO-31 renal | LOX IMVI melanoma | SF-268 CNS | SK-MEL-2 melanoma | HOP-62 NSCLC | NCI-H460 lung | RXF 393 renal | K-562 leukemia | SF-539 CNS | MDA-MB-231 breast | HCT-116 colon | SK-OV-3 ovarian | 786-0 renal | SW-620 colon | OVCAR-5 ovarian | CCRF-CEM leukemia | A498 renal | MDA-N | SK-MEL-28 melanoma | T-47D breast | BT-549 breast | PC-3 prostate | NCI-H23 lung | OVCAR-3 ovarian

O=C1/C(=N\n2c(-c3ccncc3)n[nH]c2=S)c2cc(Cl)ccc2N1CN1CCCCC1
75 µM: IGROV1 ovarian
40.2 µM: LOX IMVI melanoma
93.2 µM: HS 578T breast
50.3 µM: MOLT-4 leukemia
38.3 µM: RXF 393 renal
76.2 µM: UACC-257 melanoma
47 µM: HL-60(TB) leukemia
> 100 µM: A549 NSCLC | SN12C renal | U251 CNS | NCI-H226 lung | EKVX NSCLC | MDA-MB-435 | HOP-92 NSCLC | SK-MEL-5 melanoma | SNB-75 CNS | MCF7 breast | DU-145 prostate | OVCAR-8 ovarian | NCI/ADR-RES ovarian | TK-10 renal | COLO 205 colon | ACHN renal | KM12 colon | SF-295 CNS | CAKI-1 renal | MALME-3M melanoma | M14 melanoma | HCT-15 colon | UACC-62 melanoma | SNB-19 CNS | HT29 colon | UO-31 renal | SF-268 CNS | HOP-62 NSCLC | NCI-H460 lung | OVCAR-4 ovarian | K-562 leukemia | SF-539 CNS | MDA-MB-231 breast | HCT-116 colon | SK-OV-3 ovarian | 786-0 renal | SW-620 colon | OVCAR-5 ovarian | A498 renal | MDA-N | SK-MEL-28 melanoma | T-47D breast | BT-549 breast | PC-3 prostate | NCI-H23 lung | OVCAR-3 ovarian
59.2 µM: SK-MEL-2 melanoma
33.2 µM: NCI-H522 lung
81.1 µM: CCRF-CEM leukemia

O=c1[nH]nc(Cc2ccccc2)n1/N=C/c1ccc(/C=N/n2c(Cc3ccccc3)n[nH]c2=O)cc1
50.5 µM: K-562 leukemia
47 µM: MOLT-4 leukemia
50.7 µM: CCRF-CEM leukemia
> 100 µM: A549 NSCLC | SN12C renal | U251 CNS | NCI-H226 lung | EKVX NSCLC | MDA-MB-435 | SK-MEL-5 melanoma | UACC-257 melanoma | MCF7 breast | DU-145 prostate | OVCAR-8 ovarian | HL-60(TB) leukemia | NCI/ADR-RES ovarian | TK-10 renal | COLO 205 colon | ACHN renal | KM12 colon | SF-295 CNS | CAKI-1 renal | MALME-3M melanoma | M14 melanoma | HCT-15 colon | RPMI-8226 leukemia | UACC-62 melanoma | HS 578T breast | NCI-H522 lung | SNB-19 CNS | IGROV1 ovarian | HT29 colon | UO-31 renal | LOX IMVI melanoma | SF-268 CNS | SK-MEL-2 melanoma | HOP-62 NSCLC | NCI-H460 lung | OVCAR-4 ovarian | RXF 393 renal | MDA-MB-231 breast | HCT-116 colon | 786-0 renal | SW-620 colon | OVCAR-5 ovarian | A498 renal | MDA-N | SK-MEL-28 melanoma | T-47D breast | BT-549 breast | PC-3 prostate | NCI-H23 lung | OVCAR-3 ovarian

From PubChem BioAssay (NCI)
